Among the test systems are COLO 205; SF-268; OVCAR-3; SF-539; MCF7; A498; A549; SW-620; HOP-62; HL-60; UACC-257; OVCAR-8; Malme-3M; RPMI-8226; SNB-75; TK-10; KM12; SR; PC-3; SNB-19.
Holding throughout (assay): inhibition of tumour cell growth, NCI panel, 48 h

Molecules are shown by their SMILES.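 Five compound concentrations were applied to cells in 96-well plates for 48 hours; endpoints were derived by simple linear interpolation of the resulting dose-response curve. GI50 marks 50% less growth.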 Calls of active or inactive are those of the source. No stated cut-off is given here; in the data, active = GI50 up to about 1.1 µM and inactive = higher.

Regarding `CCCCCn1c(=O)c2c(=O)[nH][nH]c2c2ccccc21`, the GI50 in the assay on COLO 205, with SF-268, with OVCAR-3, with SF-539, in the assay with MCF7 and in the assay on A498 was > 100 µM (inactive) each time. The GI50 with A549, with SW-620, with HOP-62, with HL-60, with UACC-257 and in the assay with OVCAR-8 was > 100 µM (inactive) throughout. Moreover, the GI50 in the assay on Malme-3M, in the assay with RPMI-8226, with SNB-75, in the assay on TK-10, in the assay with KM12 and with SR was > 100 µM (inactive) throughout. In addition, in the assay with PC-3, the GI50 was > 100 µM (inactive).
Turning to `O=c1[nH]nc(-c2ccccc2)c2[nH]c3c4ccccc4ccc3c12`, the GI50 was 0.74 µM (active) with COLO 205; 1.33 µM (inactive) with SF-268; 1.62 µM (inactive) in the assay with SNB-19; 0.424 µM (active) in the assay on OVCAR-3; 0.964 µM (active) in the assay with SF-539; 0.331 µM (active) with MCF7. The GI50 is 1.51 µM (inactive) with A498; 1.31 µM (inactive) with A549; 0.656 µM (active) in the assay on SW-620; 2.77 µM (inactive) in the assay on HOP-62; 0.548 µM (active) with HL-60; 5.82 µM (inactive) in the assay with UACC-257. In addition, the GI50 was 4.83 µM (inactive) with Malme-3M; 0.746 µM (active) in the assay on RPMI-8226; 3.93 µM (inactive) with SNB-75; 2.17 µM (inactive) with TK-10; 0.692 µM (active) in the assay with KM12; 0.251 µM (active) with SR. Besides, the GI50 in the assay on PC-3 is 1.28 µM (inactive).
For `CN1C2CCC1CC(=CCOC(c1ccc(F)cc1)c1ccc(F)cc1)C2`, the GI50 in the assay with COLO 205 was 11 µM (inactive); in the assay on SF-268, 12.9 µM (inactive); in the assay with SNB-19, 21.2 µM (inactive); in the assay on OVCAR-3 it was 17 µM (inactive); in the assay with SF-539, 16.4 µM (inactive); in the assay with MCF7, 16.6 µM (inactive). In addition, the GI50 was 14.7 µM (inactive) in the assay with A498; 17.1 µM (inactive) in the assay with A549; 30.8 µM (inactive) with SW-620; 17.7 µM (inactive) in the assay on HOP-62; 13.6 µM (inactive) in the assay on HL-60; 16.1 µM (inactive) with UACC-257. In addition, the GI50 with OVCAR-8 was 17.1 µM (inactive); with Malme-3M it was 13.2 µM (inactive); with RPMI-8226, 15.3 µM (inactive); with SNB-75 it was 13.8 µM (inactive); in the assay with TK-10, 14.9 µM (inactive); with KM12 it was 15 µM (inactive). Also, the GI50 in the assay with SR is 15.8 µM (inactive); in the assay on PC-3, 16.1 µM (inactive).
Turning to `CCCCn1c2c(n(CCCC)c1=S)-c1c(n(CCCC)c(=S)n1CCCC)S[Se][Se]S2`, the GI50 was 1.62 µM (inactive) in the assay with COLO 205; 7.13 µM (inactive) in the assay on SF-268; 5.42 µM (inactive) in the assay on SNB-19; 0.931 µM (active) in the assay with OVCAR-3; 3.81 µM (inactive) with SF-539; 6.64 µM (inactive) with MCF7. The GI50 was 38.7 µM (inactive) in the assay with A498; 19.7 µM (inactive) in the assay on A549; 0.778 µM (active) with SW-620; 8.83 µM (inactive) in the assay with HOP-62; 8.87 µM (inactive) in the assay with UACC-257; 4.16 µM (inactive) in the assay with OVCAR-8. In addition, the GI50 in the assay on Malme-3M is 0.625 µM (active); in the assay on RPMI-8226 it was 2.49 µM (inactive); in the assay with SNB-75, 5.13 µM (inactive); in the assay with TK-10, 4.42 µM (inactive); with KM12 it was 18.7 µM (inactive); in the assay with SR, 5.19 µM (inactive). Besides, the GI50 in the assay on PC-3 was 2.26 µM (inactive).
Regarding `CCOC(=O)/C(C#N)=C/c1ccc(SCc2ccco2)c([N+](=O)[O-])c1`, the GI50 is > 100 µM (inactive) in the assay on COLO 205; > 100 µM (inactive) in the assay with SF-268; > 100 µM (inactive) in the assay with SNB-19; > 100 µM (inactive) in the assay with OVCAR-3; 56.8 µM (inactive) with SF-539; > 100 µM (inactive) with MCF7. Moreover, the GI50 in the assay on A498, in the assay on A549, with SW-620, in the assay with HOP-62, in the assay with HL-60 and in the assay with UACC-257 was > 100 µM (inactive) each time. In addition, the GI50 in the assay on OVCAR-8, in the assay with Malme-3M, with RPMI-8226, in the assay with SNB-75, in the assay with KM12 and in the assay on SR was > 100 µM (inactive) throughout. Moreover, the GI50 in the assay on PC-3 is > 100 µM (inactive).
For the molecule `COC1OC(C)/C(=N/O)C2OC(C)(C)OC12` (stereo not given), the GI50 in the assay with COLO 205 is > 100 µM (inactive); in the assay with SF-268, > 100 µM (inactive); in the assay with SNB-19 it was > 100 µM (inactive); with OVCAR-3, > 100 µM (inactive); with SF-539, > 100 µM (inactive); in the assay on MCF7, 78.7 µM (inactive). In addition, the GI50 in the assay with A498, with A549, with SW-620, in the assay with HOP-62, with HL-60 and in the assay on UACC-257 was > 100 µM (inactive) in each case. The GI50 with OVCAR-8, in the assay on Malme-3M, with RPMI-8226, in the assay on TK-10, with KM12 and in the assay with SR was > 100 µM (inactive) throughout. Moreover, in the assay on PC-3, the GI50 was > 100 µM (inactive).
As to `OC(CN1CCCCC1)c1ccc(/C=C/c2ccc(Cl)cc2)cc1` (stereo not given), the GI50 in the assay with COLO 205 was 16.7 µM (inactive); in the assay on SF-268, > 100 µM (inactive); in the assay with SNB-19, > 100 µM (inactive); in the assay on OVCAR-3, 89.1 µM (inactive); in the assay on SF-539, 43.6 µM (inactive); in the assay with MCF7, > 100 µM (inactive). Further, the GI50 with A498 was 40 µM (inactive); in the assay with A549 it was > 100 µM (inactive); in the assay on SW-620, 46.9 µM (inactive); in the assay with HOP-62 it was 94.8 µM (inactive); with HL-60 it was 6.14 µM (inactive); with UACC-257 it was 21.6 µM (inactive). Besides, the GI50 with OVCAR-8 is > 100 µM (inactive); in the assay on Malme-3M, 60.3 µM (inactive); in the assay with RPMI-8226 it was 27.6 µM (inactive); in the assay on TK-10, > 100 µM (inactive); with KM12, 17.2 µM (inactive); in the assay with SR, > 100 µM (inactive). In addition, the GI50 with PC-3 is 90.6 µM (inactive).
As for `COc1ccc2[nH]c3cc4c(=O)c5cc(OC)ccc5[nH]c4cc3c(=O)c2c1`, the GI50 in the assay on COLO 205, with SF-268, with SNB-19, with OVCAR-3, in the assay on MCF7 and with A498 was > 100 µM (inactive) each time. Also, the GI50 was > 100 µM (inactive) in the assay on A549; > 100 µM (inactive) in the assay with SW-620; 69.5 µM (inactive) in the assay on HOP-62; 10.8 µM (inactive) in the assay with HL-60; > 100 µM (inactive) in the assay with UACC-257; > 100 µM (inactive) in the assay with OVCAR-8. For the same molecule, the GI50 in the assay on Malme-3M was > 100 µM (inactive); in the assay with RPMI-8226, > 100 µM (inactive); in the assay on SNB-75, 26.9 µM (inactive); in the assay on TK-10, > 100 µM (inactive); in the assay on KM12 it was > 100 µM (inactive); in the assay on SR, > 100 µM (inactive). In addition, the GI50 with PC-3 was > 100 µM (inactive).
As for `COI1NC(=O)c2ccccc21`, the GI50 with COLO 205, with SF-268, in the assay on SNB-19, in the assay with OVCAR-3, with MCF7 and in the assay on A498 was > 100 µM (inactive) throughout. Moreover, the GI50 in the assay on A549, in the assay with SW-620, in the assay with HOP-62, in the assay on HL-60, with OVCAR-8 and with Malme-3M was > 100 µM (inactive) each time. For the same molecule, the GI50 with RPMI-8226, in the assay with SNB-75, in the assay on TK-10, with KM12, with SR and in the assay with PC-3 was > 100 µM (inactive) in each case.
Take `CN[C@@H](Cc1cccc2ccccc12)C(=O)N[C@@H](CC(C)C)B(O)O`: the GI50 with COLO 205, in the assay on SF-268, with SNB-19, with OVCAR-3, in the assay with SF-539 and with MCF7 was < 0.01 µM (active) throughout. For the same molecule, the GI50 in the assay with A498 is < 0.01 µM (active); in the assay on A549 it was < 0.01 µM (active); with SW-620, < 0.01 µM (active); with HOP-62, < 0.011 µM (active); with HL-60, < 0.01 µM (active); in the assay on OVCAR-8, < 0.014 µM (active). Moreover, the GI50 in the assay on Malme-3M, in the assay with RPMI-8226, in the assay on SNB-75, with TK-10, with KM12 and in the assay with SR was < 0.01 µM (active) each time. Further, the GI50 in the assay on PC-3 was < 0.0119 µM (active).

The record behind these values is ChEMBL document CHEMBL1201862, “PubChem BioAssay data set” (2004).
